Reference: patent US5831115A, “Inhibitors of squalene synthase and protein farnesyltransferase” (Abbott Laboratories, priority 1996, dated 1998)

The compounds below were run against T1, Rat liver microsomal squalene synthase (Rattus norvegicus, UniProt Q02769) (assay: In vitro Inhibition of Squalene Synthase (rat liver microsomal, radioactive farnesyl diphosphate substrate)). Settings: rat liver microsomes.
T1 construct: Rat liver microsomes, the source of enzyme, were prepared; from tissue; host or cells: rat liver microsomes
T1 sequence (Q02769 1-416): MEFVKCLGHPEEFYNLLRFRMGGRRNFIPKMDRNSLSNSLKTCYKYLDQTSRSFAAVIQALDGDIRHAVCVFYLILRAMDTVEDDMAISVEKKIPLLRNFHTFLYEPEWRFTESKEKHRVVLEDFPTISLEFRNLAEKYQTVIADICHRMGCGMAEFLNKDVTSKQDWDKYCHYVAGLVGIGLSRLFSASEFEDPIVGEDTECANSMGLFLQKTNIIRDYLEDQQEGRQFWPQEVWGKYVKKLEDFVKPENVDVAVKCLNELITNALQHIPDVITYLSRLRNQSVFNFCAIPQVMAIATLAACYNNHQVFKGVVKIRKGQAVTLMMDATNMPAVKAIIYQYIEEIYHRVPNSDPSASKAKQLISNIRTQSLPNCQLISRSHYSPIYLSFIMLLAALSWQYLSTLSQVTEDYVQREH
Assay type: biochemical
Protocol: In vitro inhibition of squalene synthase may be measured by the following procedure.
Rat liver microsomal squalene synthase activity was measured using radioactive farnesyl diphosphate as a substrate and quantitating squalene synthesis by counting the radioactive squalene formed.
Rat liver microsomes, the source of enzyme, were prepared according to the method of Gillies, P. J., et al., Exp. Molc. Pathol. 44: 329-339 (1986), a modification of the procedure of Erickson, S. K., and Cooper, A. D., Metabolism, 29: 991-996 (1980). Approximately 30 μg of microsomal protein was incubated for 10 minutes at 37° C. with […] of ^3 H-farnesyl diphosphate, 49 mCi/mmol, and test compound in the presence of squalene (2 μL), Mg++, KF, reduced B-nicotinamide adenine dinucleotide phosphate, dithiothreitol, and K2 PO4, pH 7.35, in a total volume of 200 μL. Oxygen was excluded from the closed incubation tube by degassing with nitrogen. The reaction was terminated by the addition of ethanolic KOH and after degassing with N2, the microsomal membranes were solubilized by heating at 60° C. for 30 minutes. The squalene was extracted into hexane, and the squalene was separated from all other radioactive molcules by passage over an activated alumina column. The solution was collected in scintillation vials, evaporated to dryness, liquid scintillation fluid was added, and the radioactivity was determined in a liquid scintillation counter. The percent inhibition at a dose of 1 μM compared to controls with no test compound was determined.

SMILES	% Inhibition at 1 μM [%]	inhibition at 1 µM [%]
C[C@H](NC(=O)C1CC(CO)C1C(=O)[O-])[C@H](Cc1ccc(Cl)cc1)c1ccc(-c2ccccc2)cc1.[Na+] (mixture of isomers) [Example 41, (±)-(1α,2β,4α)-2-[N-{(2S,3R)-4-(4-Chlorophenyl)-3-(4-biphenylyl)-2-butyl}aminocarbonyl]-4-hydroxymethylcyclobutane-1-carboxylic acid sodium salt]	80	
CC(NC(=O)[C@H]1C[C@H](C(=O)O)[C@H]1C(=O)O)C(Cc1ccc(Cl)cc1)c1ccc(-c2ccccc2)cc1 (relative stereo) [Example 34, (1β,2α,3α)-3-[N-{(2S,3R)-4-(4-chlorophenyl)-3-(4-biphenylyl)-2-butyl}aminocarbonyl]cyclobutane-1,2-dicarboxylic acid]		94
O=C(O)[C@H]1[C@H](C(=O)O)[C@H](C(=O)O)[C@H]1C(=O)N(CCCCCCCCCCc1ccccc1)Cc1ccccc1 (relative stereo) [Example 35, (1β,2β,3α,4α)-4-[N-Benzyl-N-(10-phenyldecyl)aminocarbonyl]cyclobutane-1,2,3-tricarboxylic acid]		47
O=C(O)[C@H]1[C@H](C(=O)O)[C@H](C(=O)O)[C@H]1C(=O)N(Cc1ccc(Oc2ccccc2)cc1)Cc1ccc(Cl)c(Cl)c1 (relative stereo) [Example 46]		53
COC(=O)[C@@H]1[C@H](C(=O)O)[C@@H](C(=O)O)[C@H]1C(=O)N[C@@H](C)[C@@H](Cc1ccc(Cl)c(Cl)c1)OC(=O)c1ccc2ccccc2c1 [Example 23, (1S,2R,3S,4R)-3-Methoxycarbonyl-4-[N-{(2S,3R)-4-(3,4-dichlorophenyl)-3-(2-naphthoyloxy)-2-butyl}aminocarbonyl]cyclobutane-1,2-dicarboxylic acid]		98
COC(=O)[C@H]1[C@@H](C(=O)O)[C@H](C(=O)O)[C@@H]1C(=O)N[C@@H](C)[C@@H](Cc1ccc(Cl)c(Cl)c1)OC(=O)c1ccc2ccccc2c1 [Example 24]		27
C[C@H](NC(=O)[C@H]1[C@H](C(=O)O)[C@H](C(=O)O)[C@H]1C(=O)O)[C@@H](Cc1ccc(Cl)c(Cl)c1)OC(=O)c1ccc2ccccc2c1 [Example 25, (1S,2S,3S,4R)-4-[N-{(2S,3R)-4-(3,4-Dichlorophenyl)-3-(2-naphthoyloxy)-2-butyl}aminocarbonyl]cyclobutane-1,2,3-tricarboxylic acid]		35
C[C@H](NC(=O)[C@H]1[C@@H](C(=O)O)[C@H](C(=O)O)[C@@H]1C(=O)O)[C@@H](Cc1ccc(Cl)c(Cl)c1)OC(=O)c1ccc2ccccc2c1 [Example 26, (1R,2R,3R,4S)-4-[N-{(2S,3R)-4-(3,4-Dichlorophenyl)-3-(2-naphthoyloxy)-2-butyl}aminocarbonyl]cyclobutane-1,2,3-tricarboxylic acid]		52
COC(=O)[C@@H]1[C@@H](C(=O)O)[C@@H](C(=O)O)[C@@H]1C(=O)N[C@@H](C)[C@@H](Cc1ccc(Cl)c(Cl)c1)OC(=O)c1ccc2ccccc2c1 [Example 27, (1S,2S,3S,4S)-3-Methoxycarbonyl-4-[N-{(2S,3R)-4-(3,4-dichlorophenyl)-3-(2-naphthoyloxy)-2-butyl}aminocarbonyl]cyclobutane-1,2-dicarboxylic acid]		98
C[C@H](NC(=O)C1CCC1C(=O)O)[C@H](Cc1ccc(Cl)cc1)c1ccc(-c2ccccc2)cc1 (stereo partly drawn) [Example 37, 2-[N-{(2S,3R)-4-(4-Chlorophenyl)-3-(4-biphenylyl)-2-butyl}aminocarbonyl]cyclobutane-1-carboxylic acid]		90
CCCN(CCCC(OC(=O)c1ccc2ccccc2c1)C(C)Cc1ccccc1)C(=O)C1C(C(=O)O)C(C(=O)O)C1C(=O)O (stereo not drawn) [Example 43, (1α,2β,3β,4α)-4-{N-Propyl-N-[(4S*,5S*)-(5-methyl-4-napthoyloxy)-6-phenylhexyl]aminocarbonyl}cyclobutane-1,2,3-tricarboxylic acid]		63
CCCN(CCCC=CC(C)CCCc1ccccc1)C(=O)C1C(C(=O)O)C(C(=O)O)C1C(=O)O [Example 44, (1α,2α,3β,4β)-4-{N-Propyl-N-[(R)-6-methyl-9-phenyl-(E)-4-nonenyl]aminocarbonyl}cyclobutane-1,2,3-tricarboxylic acid]		25
CC(C=CCCCN(Cc1ccccc1)C(=O)C1C(C(=O)O)C(C(=O)O)C1C(=O)O)CCCc1ccccc1 [Example 45, (1α,2α,3β,4β)-4-{N-Benzyl-N-[(R)-6-methyl-9-phenyl-(E)-4-nonenyl]aminocarbonyl}cyclobutane-1,2,3-tricarboxylic acid]		67

What follows are compounds tested against T2, Rat brain protein farnesyltransferase (Rattus norvegicus, UniProt Q02293+Q04631) (assay: In vitro Inhibition of Protein Farnesyltransferase (scintillation proximity assay, biotin-K Ras B fragment)). Settings: rat brain enzyme.
T2 construct: Rat brain protein farnesyltransferase activity was measured; from tissue; host or cells: rat brain; partially purified by steps one through three of Reiss et al., Cell 62:81-88 (1990)
Assay type: biochemical
Protocol: In vitro inhibition of protein farnesyltransferase may be measured by the following procedure. (Procedures for determination of the inhibition of farnesylation of the oncogene protein Ras are described by Goldstein, et al., J. Biol. Chem., 266:15575-15578 (1991) and by Singh in U.S. Pat. No. 5,245,061 both of which are incorporated herein by reference.)
Rat brain protein farnesyltransferase activity was measured using an Amersham Life Science commercial scintillation proximity assay kit and substituting a biotin-K Ras B fragment (biotin-Lys-Lys-Ser-Lys-Thr-Lys-Cys-Val-lle-Met-CO2 H), 0.1 μM final concentration, for the biotin-lamin substrate provided by Amersham. The enzyme was purified according to Reiss, Y., et al., Cell, 62:81-88 (1990), utilizing steps one through three. The specific activity of the enzyme was approximately 10 nmol substrate farnesylated/mg enzyme/hour. […]

SMILES	inhibition at 1 µM [%]
O=C(OCc1ccccc1)[C@@H]1[C@H](C(=O)O)[C@@H](C(=O)OCc2ccccc2)[C@H]1C(=O)N(Cc1ccccc1)Cc1ccc(Oc2ccccc2)cc1 (relative stereo) [Example 3, (1α,2β,3β,4α)-1-[N-Benzyl-N-(4-phenoxybenzyl)aminocarbonyl]-2,4-di(benzyloxycarbonyl)cyclobutane-3-carboxylic acid]	45
O=C(O)[C@@H]1[C@H](C(=O)O)[C@@H](C(=O)O)[C@H]1C(=O)N(Cc1ccccc1)Cc1ccc(Oc2ccccc2)cc1 (relative stereo) [Example 4, (1α,2β,3β,4α)-1-[N-Benzyl-N-(4-phenoxybenzyl)aminocarbonyl]cyclobutane-2,3,4-tricarboxylic acid]	99
O=C(OCc1ccccc1)[C@@H]1[C@H](C(=O)O)[C@@H](C(=O)OCc2ccccc2)[C@H]1C(=O)N(Cc1ccc(Oc2ccccc2)cc1)Cc1cccs1 (relative stereo) [Example 5, (1α,2β,3β,4α)-1-[N-(Thien-2-ylmethyl)-N-(4-phenoxybenzyl)aminocarbonyl]-2,4-di(benzyloxycarbonyl)cyclobutane-3-carboxylic acid]	21
O=C(O)[C@@H]1[C@H](C(=O)O)[C@@H](C(=O)O)[C@H]1C(=O)N(Cc1ccc(Oc2ccccc2)cc1)Cc1cccs1 (relative stereo) [Example 6, (1α,2β,3β,4α)-1-[N-(Thien-2-ylmethyl)-N-(4-phenoxybenzyl)aminocarbonyl]cyclobutane-2,3,4-tricarboxylic acid]	89
COC(=O)[C@H]1[C@@H](C(=O)O)[C@H](C(=O)N(Cc2ccccc2)Cc2ccc(Oc3ccccc3)cc2)[C@@H]1C(=O)O (relative stereo) [Example 8, (1α,2β,3β,4α)-1-[N-Benzyl-N-(4-phenoxybenzyl)aminocarbonyl]-3-(methyloxycarbonyl)cyclobutane-2,4-dicarboxylic acid]	79
CC(Cc1ccccc1)C(O)CCCN(Cc1ccccc1)C(=O)C1C(C(=O)O)C(C(=O)O)C1C(=O)O (stereo not drawn) [Example 1, (1α,2β,3β,4α)-1-[N-Benzyl-N-{(4S*,5S*)-(4-hydroxy-5-methyl)-6-phenylhexyl}aminocarbonyl]cyclobutane-2,3,4-tricarboxylic acid]	92

What follows are compounds tested against T1, Rat liver microsomal squalene synthase (assay: In vitro Inhibition of Squalene Synthase (rat liver microsomal, radioactive farnesyl diphosphate substrate)). Settings: 0.15 μM (footnote *); rat liver microsomes.
Assay type: biochemical

SMILES	inhibition at 0.15 µM [%]
CC(NC(=O)C1C(C(=O)O)C(C(=O)O)C1C(=O)O)C(Cc1ccc(Cl)cc1)c1ccc(-c2ccccc2)cc1 [Example 29, (1α,2α,3α,4α)-4-[N-{(2S,3R)-4-(4-chlorophenyl)-3-(4-biphenylyl)-2-butyl}aminocarbonyl]cyclobutane-1,2,3-tricarboxylic acid]	81
